Laboratory results as given in PMC6155683, “Pharmacokinetics Studies of 12 Alkaloids in Rat Plasma after Oral Administration of Zuojin and Fan-Zuojin Formulas” (Molecules : A Journal of Synthetic Chemistry and Natural …, 2017).
Read-outs that look alike come from different tables or passages of the source.

What was measured:
[1] = PK study of the 12 alkaloids in rat plasma after oral administration of ZJ and FZJ extract (LC–MS/MS); type: in vivo; conditions: rat plasma; for AUC(0-t) / AUC(0-inf) / Cmax / MRT last / MRT inf / half-life / Csec (drug concentration of the secondary peak in C–T curve): mean ± SD, n = 6; for AUC(0-t): read-out: AUC0→t; for AUC(0-inf): read-out: AUC0→∞; for Cmax: read-out: Cmax; for MRT last: read-out: MRT0→t (converted); for MRT inf: read-out: MRT0→∞ (converted); for half-life: read-out: t1/2; for Tmax: read-out: Tmax (converted)
Experimental: The time schedule included 15 time-points and six rats were sampled at each time-point. All the rats were orally administered with ZJ extract (suspended in water) at a dose of 3.38 g/kg body weight (dosages of the 12 alkaloids were shown in Table S4), equivalent to crude drug dose of 12 g/kg body weight. Blood samples were collected from the suborbital vein of the rats at 10, 20, 30, 60, 90, 120, 180, 240, 300, 330, 360, 480, 720, 1440, 2160 min after administration, and centrifuged immediately at 5000 rpm for 10 min. The plasma samples were stored at −20 °C until analysis.
Similarly, the time schedule of other rats included 15 time-points and six rats were orally administered with FZJ extract at a dose of 3.76 g/kg body weight (also equivalent to crude drug dose of 12 g/kg body weight, Table S4). Blood samples were collected and treated as mentioned above in the PK study of ZJ extract.
PK parameters of the 12 alkaloids including AUC0→t, AUC0→∞, mean retention time (MRT0→t, MRT0→∞), and elimination half-life (t1/2) were calculated with non-compartmental method by DAS 2.0 software (Mathematical Pharmacology Professional Committee of China, Shanghai, China). Maximum plasma drug concentration (Cmax) and time to reach the maximum plasma drug concentration (Tmax) were observed directly from the detected C–T data. The results were expressed as arithmetic mean ± standard deviation (SD).

[2] = Stability of analytes in rat plasma under storage conditions; type: physicochemical; conditions: n = 6; for Stability RE, 3 freeze-thaw cycles / Stability RE, 30 days at −20 °C: rat plasma; for Stability RE, processed samples' stability: room temperature 24 h
Experimental: The stabilities of analytes in plasma were assessed by analyzing the QC samples at three concentration levels under the following storage conditions: after three freeze (−20 °C)-thaw (room temperature) cycles; stored at −20 °C for 30 days, and comparing the results with those of freshly prepared QC samples. Stabilities of the processed samples at room temperature for 24 h were also assessed.

[3] = Dose modified systemic exposure (AUC0→∞/D, Cmax/D)
Experimental: Because the alkaloids content in ZJ and FZJ were no longer linear with the proportion of CR and EF after extraction process, AUC0→∞/D (ratio of AUC0→∞ and dose) and Cmax/D (ratio of Cmax and dose) were calculated to estimate the dose modified systemic exposure levels of the 12 alkaloids (Table 3). […] Physicochemical properties of these alkaloids had been calculated in silico to predict their human colon adenocarcinoma cell (Caco-2) permeability according to the three-property based rule (3PRule). Polar surface area (PSA), logarithm of the n-octanol/water distribution coefficient (LogD), molecular weight (MW), hydrogen bond donors (HBD), hydrogen bond acceptors (HBA), number of free rotatable bonds (NRB) and molar solubility (S) of the alkaloids were retrieved from SciFinder® (American Chemical Society).

[4] = Two-compartment model fitting of C–T curves (DAS 2.0); type: in vivo, rat
Source text: Double peaks in C–T curves were observed repeatedly in the PK study of ZJ and related TCM prescriptions, but explanations to the phenomenon were still ambiguous. Generally, possible reasons for the double peak phenomenon could be summarized as follows: (a) enterohepatic circulation; […] (c) irregular pattern of gastric emptying. […] Moreover, Tmax of the alkaloids after administration of ZJ extract were deferred from that of FZJ administration. […] It probably play a major role in the double peak phenomenon, since the GI motility can affect the drug absorption.

| AUC(0-t) ([1]; 3.38 g/kg, oral ZJ extract) | AUC(0-inf) ([1]; 3.38 g/kg, oral ZJ extract) | Cmax ([1]; 3.38 g/kg, oral ZJ extract) | MRT last ([1]; 3.38 g/kg, oral ZJ extract) | MRT inf ([1]; 3.38 g/kg, oral ZJ extract) | half-life ([1]; 3.38 g/kg, oral ZJ extract) | Tmax ([1]; 3.38 g/kg, oral ZJ extract) | AUC(0-t) ([1]; 3.76 g/kg, oral FZJ extract) | AUC(0-inf) ([1]; 3.76 g/kg, oral FZJ extract) | Cmax ([1]; 3.76 g/kg, oral FZJ extract) | MRT last ([1]; 3.76 g/kg, oral FZJ extract) | MRT inf ([1]; 3.76 g/kg, oral FZJ extract) | half-life ([1]; 3.76 g/kg, oral FZJ extract) | Tmax ([1]; 3.76 g/kg, oral FZJ extract) | Tsec (time of the secondary peak in C–T curve) ([1]; oral ZJ extract) | Csec (drug concentration of the secondary peak in C–T curve) ([1]; oral ZJ extract) | Stability RE, 3 freeze-thaw cycles ([2]; high QC concentration) | Stability RE, 30 days at −20 °C ([2]; high QC concentration) | Stability RE, 3 freeze-thaw cycles ([2]; low QC concentration) | Stability RE, 30 days at −20 °C ([2]; low QC concentration) | Compound | further results |
| --- | --- | --- | --- | --- | --- | --- | --- | --- | --- | --- | --- | --- | --- | --- | --- | --- | --- | --- | --- | --- | --- |
| 0.0685 ± 0.0159 µg·h/mL | 0.0696 ± 0.0155 µg·h/mL | 13.7 ± 7.05 ng/mL | 10.8 h | 11.6 h | 6.11 ± 1.7 h | 5 h | 0.0101 ± 0.00109 µg·h/mL | 0.0114 ± 0.00127 µg·h/mL | 4.82 ± 1.97 ng/mL | 3.89 h | 5.26 h | 3.92 ± 1.69 h | 3 h | 90 min | 5.51 ± 2.17 ng/mL | −12.84% | −6.2% | −3.64% | 13.92% | COc1cc2c(cc1OC)-c1cc3ccc4c(c3c[n+]1CC2)OCO4 [epiberberine] | Stability RE, 3 freeze-thaw cycles ([2]; medium QC concentration): −6.12%; Stability RE, 30 days at −20 °C ([2]; medium QC concentration): −13.86%; Stability RE, processed samples' stability ([2]; high QC concentration): −10.77%; Stability RE, processed samples' stability ([2]; low QC concentration): 2.78%; Stability RE, processed samples' stability ([2]; medium QC concentration): −8.85%; AUC0→∞/D (ratio of AUC0→∞ and dose) ([3]; oral FZJ extract): 1.91; Cmax/D (ratio of Cmax and dose) ([3]; oral FZJ extract): 0.81; AUC0→∞/D (ratio of AUC0→∞ and dose) ([3]; oral ZJ extract): 0.62; Cmax/D (ratio of Cmax and dose) ([3]; oral ZJ extract): 0.12 |
| 0.0556 ± 0.0124 µg·h/mL | 0.059 ± 0.0133 µg·h/mL | 24.2 ± 12.9 ng/mL | 4.19 h | 6.52 h | 8.99 ± 6.39 h | 1 h | 0.0178 ± 0.00399 µg·h/mL | 0.0196 ± 0.00479 µg·h/mL | 4.07 ± 0.44 ng/mL | 7.04 h | 9.3 h | 6.91 ± 1 h | 0.5 h | 240 min | 7.36 ± 4.89 ng/mL | 7.91% | 6.12% | −19.16% | 8.28% | CCCCC=CCCCCCCCc1cc(=O)c2ccccc2n1C [evocarpine] | Stability RE, 3 freeze-thaw cycles ([2]; medium QC concentration): 3.44%; Stability RE, 30 days at −20 °C ([2]; medium QC concentration): −14.67%; Stability RE, processed samples' stability ([2]; high QC concentration): 3.83%; Stability RE, processed samples' stability ([2]; low QC concentration): 14.05%; Stability RE, processed samples' stability ([2]; medium QC concentration): −14.47%; AUC0→∞/D (ratio of AUC0→∞ and dose) ([3]; oral FZJ extract): 13.16; Cmax/D (ratio of Cmax and dose) ([3]; oral FZJ extract): 2.74; AUC0→∞/D (ratio of AUC0→∞ and dose) ([3]; oral ZJ extract): 35.17; Cmax/D (ratio of Cmax and dose) ([3]; oral ZJ extract): 14.42; AIC (Akaike's information criterion method), two-compartment model fitting ([4]; oral FZJ extract): 27.61 ± 10.527; r^2 (correlation coefficient method), two-compartment model fitting ([4]; oral FZJ extract): 0.740 ± 0.167; AIC (Akaike's information criterion method), two-compartment model fitting ([4]; oral ZJ extract): 78.232 ± 11.393; r^2 (correlation coefficient method), two-compartment model fitting ([4]; oral ZJ extract): 0.734 ± 0.201 |
| 0.133 ± 0.0185 µg·h/mL | 0.14 ± 0.0178 µg·h/mL | 29.6 ± 15.2 ng/mL | 8.82 h | 11 h | 10.7 ± 2.82 h | 1.5 h | 0.00495 ± 0.00065 µg·h/mL | 0.00537 ± 0.00073 µg·h/mL | 3.17 ± 1 ng/mL | 3.03 h | 5.25 h | 4.06 ± 2.93 h | 0.5 h | 300 min | 16.29 ± 8.38 ng/mL | −9.82% | −12.1% | −14.7% | −8.89% | O=C1NCCc2cc3c(cc21)OCO3 [noroxyhydrastinine] | Stability RE, 3 freeze-thaw cycles ([2]; medium QC concentration): 11.57%; Stability RE, 30 days at −20 °C ([2]; medium QC concentration): −2.75%; Stability RE, processed samples' stability ([2]; high QC concentration): −12.23%; Stability RE, processed samples' stability ([2]; low QC concentration): −8.14%; Stability RE, processed samples' stability ([2]; medium QC concentration): −0.19%; AUC0→∞/D (ratio of AUC0→∞ and dose) ([3]; oral FZJ extract): 268.50; Cmax/D (ratio of Cmax and dose) ([3]; oral FZJ extract): 158.50; AUC0→∞/D (ratio of AUC0→∞ and dose) ([3]; oral ZJ extract): 1687.47; Cmax/D (ratio of Cmax and dose) ([3]; oral ZJ extract): 357.11; AIC (Akaike's information criterion method), two-compartment model fitting ([4]; oral FZJ extract): 16.505 ± 12.486; r^2 (correlation coefficient method), two-compartment model fitting ([4]; oral FZJ extract): 0.802 ± 0.128; AIC (Akaike's information criterion method), two-compartment model fitting ([4]; oral ZJ extract): 118.137 ± 17.623; r^2 (correlation coefficient method), two-compartment model fitting ([4]; oral ZJ extract): 0.313 ± 0.350 |
